Consider 17 compounds from US20040082664A1, “Derivatives of hydroxyphenyl, a method for preparing thereof and their pharmaceutical composition” (priority 2002, published 2004).

Test [1] has as its system collagen-induced rheumatoid arthritis. The test is described as follows: Inhibition of collagen-induced rheumatoid arthritis in DBA1/LacJ mice. It counts as in vivo, mouse. Further details: key: sum of 4 leg scores (0-4 each), max 16. The note with it: 50 mg/kg/day i.p. daily; day 15 after treatment (day 36 after primary immunization); sum of scores of four legs, maximum 16; mean ± standard deviation. The method, then: After 2 weeks, booster immunization was carried out with 50 μg C II/IFA. From the 3rd week after primary immunization, compounds of the present invention were injected daily into peritoneal cavities of 6-8 mice per group for 15-20 days.
The vehicle control groups were injected daily with 100 μl of 5% ethanol-olive oil mixture in total 15-20 times. Widely used anti-rheumatic drug, Methotrexate, was dissolved in PBS and then injected to mice at 1 mg/kg/day every other day in total 8-10 times. Meanwhile, the compounds of the invention were dissolved in ethanol and then mulsified in olive oil, in which the final ethanol concentration was adjusted to 5% and the compounds of this invention was 50 mg/kg/day.
From the 3rd week after primary immunization, the extent of edema and the joint swelling was monitored everyday to determine arthritic index. Arthitic index is the sum of the arthritic scores of all 4 legs and, therefore, maximum arthritis index of 16 can be achieved (e.g., [4 (maximum arthritic score)/leg]×[4 legs/mouse]=16 (maximum arthritis index/mouse)). […] was presented by the mean arthritis index±standard deviation of each mouse group.

In a further test the test system is skin allograft rejection. The test is described as follows: Inhibition of skin allograft rejection (Balb/c tail skin grafted onto C57BL/6 mouse). In kind it is in vivo. The method, then:
For the experiment, allogeneic Balb/c(H-2d) mouse-tail skin was grafted onto C57BL/6(H-2b) mouse. Generally 7-8 mice were assigned to each group. All the phenyl derivatives were dissolved in 100% ethanol, mixed with olive oil, and adjusted to the final concentration of ethanol therein less than 5%. […] Meanwhile, for the group of untreated mice, an olive oil-ethanol mixture was administered as a control. The grafted skin was monitored daily after the removal of the bandage on days 7-9. Rejection was defined as more than 80% necrosis of the graft epithelium.

A further test concerns IL-2 promoter. The test is described as follows: IL-2 promoter luciferase reporter assay in anti-CD3 activated Jurkat cells. To be noted: Homo sapiens, TCR-induced (anti-CD3) IL-2 promoter luciferase, 2 h pre-incubation. It counts as cell-based. As to the method:
In order to confirm whether the compounds of the invention can pass through a cell membrane and inhibit the expression of IL-2 gene leading to T-cell proliferation, the present inventors firstly confirmed T-cell activity by detecting the activity of the luciferase fused on the downstream of IL-2 promoter.
To investigate the activity of IL-2 promoter, Jurkat cells (1×10^6) were transfected with a IL-2 reporter plasmids using Superfect™ (Qiagen Inc.). After 24 hours of transfection, Jurkat cells were pre-incubated with compounds of various concentrations (1 uM-50 uM) for 2 hours and further cultured on 35mm plate pre-coated with 5 ug/ml of anti-CD3 antibody, resulting in T cell activation. The luciferase activity was measured using Berthold luminometer LB953. The IC50 (50% inhibition concentration) of the compounds of the invention on TCR-induced IL-2 promoter activation are shown in Table 2.

A further test addresses T1, GST-fused lck SH2 domain (Homo sapiens, UniProt P06239).
T1 construct: GST (Glutathione transferase)-fused lck SH2 domain
The test is described as follows: Inhibition of in vitro binding of lck SH2 domain to its cognate pYEEI peptide (BIAcore 2000). The note with it: IC50 class for inhibition of GST-lckSH2 binding to immobilized biotinylated […]pYEEIPI peptide; read-out: BOND DEGREE WITH SH2 OF 1ck. The method, then: The present inventors investigated the inhibition activity of phenyl derivatives on the interaction of GST (Glutathione transferase)-fused lck SH2 domain and a peptide […]pYEEIPI (comprising the sequence PYEEI, a cognate peptide of Lck SH2) by using a real time sensorgram (BIAcore 2000).
At first, the biotinylated peptide was fixed on the surface of BIAcore analysis apparatus and then GST-lckSH2 protein was injected over the surface of the immobilized peptides. The binding of GST-lck SH2 with the peptide is represented as the resonance units (referred as “RU” hereinafter) and 1,000 RU corresponds to a change in surface concentration of 1 ng/mm^2. The binding of GST-lck with the fixed peptide causes the change of refractory index, leading to the increase of RU. In the mean time, when the binding of GST-lck with the fixed peptide is inhibited, RU decreases. Those results are represented in Table 1.

The mark [2] stands for this setting: 100 mg/kg/day into abdominal cavity from day of transplantation until complete rejection.

T1 sequence (P06239 127-224 limits assumed): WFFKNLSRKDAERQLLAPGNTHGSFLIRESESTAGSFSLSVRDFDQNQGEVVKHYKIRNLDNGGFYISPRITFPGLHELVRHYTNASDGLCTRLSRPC

As for `COC(=O)[C@@H](Cc1ccc(O)c(O)c1)NC(=O)/C=C/c1ccc(O)c(O)c1` [Example 1, 3-(3,4-dihydroxy-phenyl)-(R)-2-[3-trans-(3,4-dihydroxy-phenyl)-acryloylamino]-propionic acid methyl ester], the Arthritis index in test [1] worked out at 4.3 ± 1.5. In addition, the results for the “Survival time of skin graft tissue (days ± variance)” value (“Survival time of skin graft tissue” for short) in the test on skin allograft rejection (setting [2]) and with skin allograft rejection (Example (1) 50 mg/kg/day) were 15.1 ± 1.5 days and 11.2 ± 0.5 days, respectively. The IC50 in the test with IL-2 promoter is 1.2 µM; on GST-fused lck SH2 domain it was less than 10 µM.

`O=C(/C=C/c1ccc(O)c(O)c1)N[C@H](Cc1ccc(O)c(O)c1)C(=O)O` [Example 2, 3-(3,4-dihydroxy-phenyl)-(R)-2-[3-trans-(3,4-dihydroxy-phenyl)-acryloylamino]-propionic acid] registered an Arthritis index in test [1] of 7.2 ± 1.5. Also, the “Survival time of skin graft tissue” value in the test on skin allograft rejection (setting [2]) worked out at 14.8 ± 0.5 days. Besides, the IC50 was 15 µM in the test with IL-2 promoter and less than 10 µM at GST-fused lck SH2 domain.

In test [1], `COC(=O)[C@H](Cc1ccc(O)c(O)c1)NC(=O)/C=C/c1ccc(O)c(O)c1` [Example 8, 3-(3,4-dihydroxy-phenyl)-(S)-2-[3-trans-(3,4-dihydroxy-phenyl)-acryloylamino]-propionic acid methyl ester] displayed an Arthritis index of 6.0 ± 1.1. Moreover, in the test with skin allograft rejection (setting [2]), the “Survival time of skin graft tissue” value amounted to 15.2 ± 1.1 days. The IC50 with IL-2 promoter is 10.9 µM; on GST-fused lck SH2 domain, 10 to 25 µM.

Take `O=C(/C=C/c1ccc(O)c(O)c1)N[C@@H](Cc1ccc(O)c(O)c1)C(=O)O` [Example 9, 3-(3,4-dihydroxy-phenyl)-(S)-2-[3-trans-(3,4-dihydroxy-phenyl)-acryloylamino]-propionic acid]: in test [1], the Arthritis index came to 7.2 ± 1.2. Further, the “Survival time of skin graft tissue” value in the test with skin allograft rejection (setting [2]) turned out to be 14.8 ± 0.9 days. The results for the IC50 with IL-2 promoter and on GST-fused lck SH2 domain were 18.2 µM and 25 to 50 µM, respectively.

`CCOC(=O)[C@H](Cc1ccc(O)c(O)c1)NC(=O)/C=C/c1ccc(O)c(O)c1` [Example 10, 3-(3,4-dihydroxy-phenyl)-(S)-2-[3-trans-(3,4-dihydroxy-phenyl)-acryloylamino]-propionic acid ethyl ester] yielded an Arthritis index in test [1] of 5.8 ± 0.8. Also, in the test on skin allograft rejection (setting [2]), the “Survival time of skin graft tissue” value stood at 15.3 ± 0.8 days. Moreover, the IC50 in the test with IL-2 promoter was 4.4 µM; at GST-fused lck SH2 domain it was 10 to 25 µM.

In the case of `CCCOC(=O)[C@H](Cc1ccc(O)c(O)c1)NC(=O)/C=C/c1ccc(O)c(O)c1` [Example 11, 3-(3,4-dihydroxy-phenyl)-(S)-2-[3-trans-(3,4-dihydroxy-phenyl)-acryloylamino]-propionic acid propyl ester], in test [1], the Arthritis index is given as 6.1 ± 1.3. The “Survival time of skin graft tissue” value in the test on skin allograft rejection (setting [2]) turned out to be 14.4 ± 0.9 days. For the same compound, the IC50 in the test on IL-2 promoter was 4.9 µM; on GST-fused lck SH2 domain it was 10 to 25 µM.

Compound `CC(C)OC(=O)[C@H](Cc1ccc(O)c(O)c1)NC(=O)/C=C/c1ccc(O)c(O)c1` [Example 12, 3-(3,4-dihydroxy-phenyl)-(S)-2-[3-trans-(3,4-dihydroxy-phenyl)-acryloylamino]-propionic acid isopropyl ester] registered an Arthritis index in test [1] of 5.1 ± 0.7. Besides, in the test with skin allograft rejection (setting [2]), the “Survival time of skin graft tissue” value is listed as 15.7 ± 0.8 days. The IC50 in the test with IL-2 promoter was 9.5 µM; at GST-fused lck SH2 domain, 10 to 25 µM.

In turn, `CC(C)(C)OC(=O)[C@H](Cc1ccc(O)c(O)c1)NC(=O)/C=C/c1ccc(O)c(O)c1` [Example 13, 3-(3,4-dihydroxy-phenyl)-(S)-2-[3-trans-(3,4-dihydroxy-phenyl)-acryloylamino]-propionic acid tert-butyl ester] yielded an Arthritis index in test [1] of 6.9 ± 1.1. Further, the “Survival time of skin graft tissue” value in the test with skin allograft rejection (setting [2]) is 14.5 ± 0.6 days. Moreover, the IC50 was 7.2 µM in the test on IL-2 promoter and 25 to 50 µM on GST-fused lck SH2 domain.

On to `NC(=O)[C@H](Cc1ccc(O)c(O)c1)NC(=O)/C=C/c1ccc(O)c(O)c1` [Example 14], for which the Arthritis index in test [1] came to 5.3 ± 1.2. Besides, the “Survival time of skin graft tissue” value in the test with skin allograft rejection (setting [2]) was determined as 15.3 ± 0.9 days. The IC50 is 6.9 µM with IL-2 promoter and 10 to 25 µM on GST-fused lck SH2 domain.

Regarding `CN(C(=O)/C=C/c1ccc(O)c(O)c1)[C@H](Cc1ccc(O)c(O)c1)C(=O)OC(C)(C)C` [Example 34, 3-(3,4-dihydroxy-phenyl)-(R)-2-{[3-trans-(3,4-dihydroxy-phenyl)-acryloyl]-methyl-amino}-propionic acid tert-butyl ester], in test [1], the Arthritis index came out at 6.3 ± 0.8. Also, the figures for the IC50 in the test on IL-2 promoter and on GST-fused lck SH2 domain were 14.9 µM and 25 to 50 µM, respectively.

Take `CN(C(=O)/C=C/c1ccc(O)c(O)c1)[C@H](Cc1ccc(O)c(O)c1)C(N)=O` [Example 35, N-[l-carbamoyl-2-(3,4-dihydroxy-phenyl)-ethyl]-(R)-3-trans-(3,4-dihydroxy-phenyl)-N-methyl-acrylamide]: the Arthritis index in test [1] is listed as 6.8 ± 1.9. In addition, the IC50 was 9.7 µM in the test on IL-2 promoter and 10 to 25 µM at GST-fused lck SH2 domain.

Take `CN(C(=O)/C=C/c1ccc(O)c(O)c1)[C@@H](Cc1ccc(O)c(O)c1)C(=O)O` [Example 37, 3-(3,4-dihydroxy-phenyl)-(S)-2-{[3-trans-(3,4-dihydroxy-phenyl)-acryloyl]-methyl-amino}-propionic acid]: the Arthritis index in test [1] is recorded as 6.7 ± 0.7. Moreover, the IC50 in the test with IL-2 promoter is 17.3 µM; at GST-fused lck SH2 domain, 25 to 50 µM.

The compound `CCOC(=O)[C@H](Cc1ccc(O)c(O)c1)N(C)C(=O)/C=C/c1ccc(O)c(O)c1` [Example 38, 3-(3,4-dihydroxy-phenyl)-(S)-2-{[3-trans-(3,4-dihydroxy-phenyl)-acryloyl]-methyl-amino}-propionic acid ethyl ester] displayed an Arthritis index in test [1] of 5.5 ± 1.3. The results for the IC50 with IL-2 promoter and at GST-fused lck SH2 domain were 11 µM and 10 to 25 µM, respectively.

For the compound `CC(C)OC(=O)[C@H](Cc1ccc(O)c(O)c1)N(C)C(=O)/C=C/c1ccc(O)c(O)c1` [Example 40, 3-(3,4-dihydroxy-phenyl)-(S)-2-{[3-trans-(3,4-dihydroxy-phenyl)-acryloyl]-methyl-amino}-propionic acid isopropyl ester], in test [1], the Arthritis index came to 5.9 ± 0.4. In addition, the IC50 in the test on IL-2 promoter was 8.7 µM; on GST-fused lck SH2 domain, 10 to 25 µM.

As to `COC(=O)[C@@H](Cc1ccc(O)cc1)NC(=O)/C=C/c1ccc(O)c(O)c1` [Example 45], the Arthritis index in test [1] was determined as 5.7 ± 0.9. Moreover, the IC50 in the test with IL-2 promoter is 7.8 µM; at GST-fused lck SH2 domain, 10 to 25 µM.

The compound `COC(=O)C(Cc1ccc(O)c(O)c1)NC/C=C/c1ccc(O)c(O)c1` (stereo not drawn) [Example 53, 3-(3,4-dihydroxy-phenyl)-2-[3-(3,4-dihydroxy-phenyl)-arylamino]-propionic acid methyl ester] registered an Arthritis index in test [1] of 9.8 ± 1.2. Besides, the “Survival time of skin graft tissue” value in the test on skin allograft rejection (setting [2]) is 11.9 ± 1.1 days. For the same compound, the IC50 in the test on IL-2 promoter worked out at 24.4 µM.

In the case of `CO[C@H]1C[C@@H]2CC[C@@H](C)[C@@](O)(O2)C(=O)C(=O)N2CCCC[C@H]2C(=O)O[C@H]([C@H](C)C[C@@H]2CC[C@@H](O)[C@H](OC)C2)CC(=O)[C@H](C)/C=C(\C)[C@@H](O)[C@@H](OC)C(=O)[C@H](C)C[C@H](C)/C=C/C=C/C=C/1C` [Rapamycine, reference compound], the “Survival time of skin graft tissue” value with skin allograft rejection (Rapamycine 1 mg/kg/day) stood at 12.7 ± 1.5 days; with skin allograft rejection (Rapamycine 4 mg/kg/day), 16.2 ± 1.0 days.
